US20240042424A1, “CITY POLLUTION ENVIRONMENT SIMULATION APPARATUS” (BASF SE, priority 2017, published 2024)

Columns and labels:
Format in all cases: physicochemical
[1] = Sebum oxidation products by GC/MS after exposure in pollution test chamber (dry film method); conditions: for change of sebum component in GC/MS chromatogram: upon UVA exposure
Experimental: (§1) A) Stock solutions and preparation: • Stock solution squalene: 1 g of squalene was dissolved in 100 ml ethanol solvent • Stock solution sebum: 1 g of synthetic sebum (e.g. Synthetic Sebum 09D, available from WFK Testgewebe GmbH) was dissolved in 100 ml ethanol solvent using a water bath 15 minutes under 40° C. heat 1 ml of the respective stock solution was added at the center of large petri dishes (100 mm diameter×17 mm height) using an automatic pipette. After evaporating the ethanol solvent in a high ventilated fume hood for 10 mins, the petri dishes were coated with one uniform layer of squalene, respectively sebum, evenly distributed at the bottom of the petri dish. In total 16 samples were prepared, 8 of each respective batch, meaning 8 with squalene coating (batch 1) and 8 with sebum coating (batch 2). The side walls of the test petri dish samples were wrapped with plastic band seals in order to get them vertically hooked in a position facing the UVA lamps located on sides in the pollution test chamber. Four coated petri dishes, two with squalene and two with sebum, were stored in a fridge at 4° C. for control purposes, due to the autoxidation of squalene.
(§2) For each batch, 2 samples (in total 4 samples per mode) were respectively exposed to the 3 different pollution modes (i to iii): • i. During the “UVA only” (“uv”) mode, the samples were exposed to continuous 340 nm UV irradiation of the 8 UVA lamps for 6 hours. • ii. […]
(§3) 3.3.1 Squalene and Sebum oxidation products quantification with GC/MS • Equipment: Agilent 7890B/5977A GC-MS system • Dissolution solvent: Ethanol • column: DB-1MS • Flow Rate: 2 ml/min • Column Temperature: 40° C. […] Malondialdehyde (MDA) Quantification with Spectrophotometer (MDA-TBA Detection) • UV-vis scan between 200 and 800 nm, • Colorimetry: UV detection for MDA-TBA complex at 532 nm • Standard curve preparation: As precursor of MDA, 1,1,3,3-tetraethoxypropane (TEP) was used. […]

[2] = Squalene oxidation products by GC/MS after exposure in pollution test chamber (dry film method); conditions: solvent ethanol
Experimental: as §1, §2, §3

[3] = MDA quantification/TBA test for squalene samples after pollution exposure
Experimental: as §1, §2, §3

SMILES	change of sebum component in GC/MS chromatogram [1]	squalene oxidization products (GC/MS) ([2]; UVA and exhaust gas (PUV-Mode), UVA 6 h, 3x30 mins diesel engine exhaust gas)	squalene oxidization products (GC/MS) ([2]; UVA irradiation only (UV-Mode), UVA for 6 h)	squalene oxidization products (GC/MS) ([2]; exhaust gas only (p-Mode), 3x30 mins diesel engine exhaust gas)	decrease of squalene from sebum (GC/MS) ([1]; 2 h UVA exposure and one-time 30 min exhaust gas, solvent Ethanol)	MDA percentage of initial mole of squalene ([3]; UVA irradiation only (uv mode))	MDA percentage of initial mole of squalene ([3]; combined exhaust gas and UV irradiation (puv mode))	MDA percentage of initial mole of squalene ([3]; exhaust gas only (p mode))
CCCCCCCCCCCCCCCC(=O)O [palmitic acid]	increase							
CC(C)CCC[C@@H](C)[C@H]1CC[C@H]2[C@@H]3CC=C4C[C@@H](O)CC[C@]4(C)[C@H]3CC[C@]12C [cholesterol]	increase							
CC(C)=CCC/C(C)=C/CC/C(C)=C/CC/C=C(\C)CC/C=C(\C)CCC=C(C)C [squalene]		a mix of pollution-induced squalene isomers (SQ isomers) as well as irradiation-induced oxidation products (SQOPs)	highest content of oxidation products	squalene isomers (SQ isomers)	93%	14.0%	13.6%	13.5%
